Assay results from the supplement of paper PMC10307832.

Columns and labels:
Experiment in all cases: relative viability (nuclei count vs DMSO), 5 days (fraction); higher = more cells survive
Tipifarnib + Navitoclax = compound: Cn1cncc1[C@@](N)(c1ccc(Cl)cc1)c1ccc2c(c1)c(-c1cccc(Cl)c1)cc(=O)n2C [Tipifarnib] + CC1(C)CCC(c2ccc(Cl)cc2)=C(CN2CCN(c3ccc(C(=O)NS(=O)(=O)c4ccc(N[C@H](CCN5CCOCC5)CSc5ccccc5)c(S(=O)(=O)C(F)(F)F)c4)cc3)CC2)C1 [Navitoclax] (partner 0.5 µM)
Summary of the method: (§1)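 For relative viability, nuclei counts in treated wells were divided by those in vehicle wells. Lung cancer cell lines had been pin-tool dosed in 1536-well plates the day after seeding and cultured for 5 days, then fixed and stained in one step (final 0.05% Triton X-100, 1% formaldehyde, 1 ug/ml Hoechst) and imaged at 4×. Doses were one drug alone or a fixed anchor-drug dose plus five library-drug doses (not always all listed) in √10 steps, and values are duplicate-plate medians.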

Tipifarnib + Linsitinib = compound: Cn1cncc1[C@@](N)(c1ccc(Cl)cc1)c1ccc2c(c1)c(-c1cccc(Cl)c1)cc(=O)n2C [Tipifarnib] + C[C@]1(O)C[C@@H](c2nc(-c3ccc4ccc(-c5ccccc5)nc4c3)c3c(N)nccn32)C1 [Linsitinib] (partner 1 µM)
Summary of the method: as §1

Tipifarnib + Foretinib = compound: Cn1cncc1[C@@](N)(c1ccc(Cl)cc1)c1ccc2c(c1)c(-c1cccc(Cl)c1)cc(=O)n2C [Tipifarnib] + COc1cc2c(Oc3ccc(NC(=O)C4(C(=O)Nc5ccc(F)cc5)CC4)cc3F)ccnc2cc1OCCCN1CCOCC1 [Foretinib] (partner 0.25 µM)
Summary of the method: as §1

Tipifarnib + Luminespib = compound: Cn1cncc1[C@@](N)(c1ccc(Cl)cc1)c1ccc2c(c1)c(-c1cccc(Cl)c1)cc(=O)n2C [Tipifarnib] + CCNC(=O)c1noc(-c2cc(C(C)C)c(O)cc2O)c1-c1ccc(CN2CCOCC2)cc1 [Luminespib] (partner 0.01 µM)
Summary of the method: as §1

| Cell Line | relative viability (Tipifarnib + Navitoclax; first compound 0.01 µM) | relative viability (Tipifarnib + Navitoclax; first compound 0.03162 µM) | relative viability (Tipifarnib + Navitoclax; first compound 0.1 µM) | relative viability (Tipifarnib + Navitoclax; first compound 0.3162 µM) | relative viability (Tipifarnib + Navitoclax; first compound 1 µM) | relative viability (Tipifarnib + Linsitinib; first compound 0.01 µM) | relative viability (Tipifarnib + Linsitinib; first compound 0.03162 µM) | relative viability (Tipifarnib + Linsitinib; first compound 0.1 µM) | relative viability (Tipifarnib + Linsitinib; first compound 0.3162 µM) | relative viability (Tipifarnib + Linsitinib; first compound 1 µM) | relative viability (Tipifarnib + Foretinib; first compound 0.01 µM) | relative viability (Tipifarnib + Foretinib; first compound 0.03162 µM) | relative viability (Tipifarnib + Foretinib; first compound 0.1 µM) | relative viability (Tipifarnib + Foretinib; first compound 0.3162 µM) | relative viability (Tipifarnib + Foretinib; first compound 1 µM) | relative viability (Tipifarnib + Luminespib; first compound 0.01 µM) | relative viability (Tipifarnib + Luminespib; first compound 0.03162 µM) | relative viability (Tipifarnib + Luminespib; first compound 0.1 µM) | relative viability (Tipifarnib + Luminespib; first compound 0.3162 µM) | relative viability (Tipifarnib + Luminespib; first compound 1 µM) |
| --- | --- | --- | --- | --- | --- | --- | --- | --- | --- | --- | --- | --- | --- | --- | --- | --- | --- | --- | --- | --- |
| HCC-78 | 0.752 | 0.896 | 0.743 | 0.59 | 0.302 | 0.607 | 0.565 | 0.562 | 0.354 | 0.361 | 0.58 | 0.546 | 0.491 | 0.513 | 0.461 | – | – | – | – | – |
| HCC-366 | 1.14 | 0.762 | 0.751 | 0.483 | 0.188 | 0.619 | 0.487 | 0.343 | 0.206 | 0.0767 | 1.04 | 0.995 | 0.586 | 0.631 | 0.121 | – | – | – | – | – |
| HCC-827 | 0.941 | 0.95 | 0.793 | 0.666 | 0.66 | 0.828 | 0.918 | 0.805 | 0.639 | 0.6 | 1.06 | 1.05 | 0.741 | 0.63 | 0.568 | 1.06 | 0.471 | 0.279 | 0.365 | 0.256 |
| HOP-62 | 0.937 | 0.55 | 0.377 | 0.233 | 0.33 | 0.916 | 0.64 | 0.38 | 0.304 | 0.301 | 0.809 | 0.671 | 0.464 | 0.305 | 0.542 | 0.653 | 0.611 | 0.401 | 0.374 | 0.349 |
| IA-LM | 0.388 | 0.378 | 0.296 | 0.251 | 0.164 | 0.329 | 0.285 | 0.332 | 0.288 | 0.189 | 0.905 | 0.55 | 0.47 | 0.299 | 0.33 | – | – | – | – | – |
| LC-2-ad | 0.413 | 0.296 | 0.258 | 0.216 | 0.201 | 0.756 | 0.705 | 0.487 | 0.448 | 0.369 | 0.968 | 0.896 | 0.807 | 0.609 | 0.657 | 1.02 | 0.897 | 0.767 | 0.753 | 0.717 |
| LCLC-97TM1 | 0.557 | 0.359 | 0.241 | 0.446 | 0.19 | 0.204 | 0.169 | 0.174 | 0.192 | 0.169 | 1.03 | 0.852 | 0.898 | 0.802 | 0.685 | 0.799 | 0.751 | 0.662 | 0.52 | 0.574 |
| LCLC-103H | – | – | – | – | – | 1.04 | 1.02 | 1.02 | 0.802 | 0.913 | 0.865 | 0.869 | 0.59 | 0.548 | 0.418 | 0.991 | 0.892 | 0.693 | 0.662 | 0.521 |
| LK-2 | 1.08 | 0.65 | 0.7 | 0.421 | 0.373 | 0.499 | 0.506 | 0.399 | 0.379 | 0.487 | 1.15 | 1.02 | 1.03 | 0.578 | 0.726 | 0.191 | 0.172 | 0.207 | 0.172 | 0.175 |
